Drawing on patent US8158621B2, “Methods of treating or preventing autoimmune diseases with 2,4-pyrimidinediamine compounds” (Rigel Pharmaceuticals, Inc., priority 2002, dated 2012), this text covers IC50 for 63 compounds.

Bounds are passed on as bounds.

In the first experiment the test system is Human Jurkat T-cells (clone N). Kind of experiment: Jurkat T-cell activation (anti-TCR, CD69 upregulation). It counts as cell-based.
Conditions: not given
The procedure:
The screening process took place over three days.
On the first day of the screen, cultured cells were spun down on a centrifuge (1000 rpm, 5 minutes) and resuspended at 3.0×10^5 cells/ml in RPMI+5% FBS. On the second day of the screen, cells were spun down at 1000 rpm for 5 minutes and resuspended in RPMI+5% FBS at 1.3×10^5 cells/ml. 85 μl of this cell suspension were added to the wells of U-bottom 96 well plates (Corning) 85 μl of compound or diluted RPMI+5% FBS (as a control) only was added to each well and incubated at 37° C. for 1 hour. The cells were then stimulated with anti-TCR (C305) at: 500 ng/ml by adding a 8× solution in 25 μl to the plated cells. The cells were then incubated at 37° C. for 20 hrs.
On the third day of the screen, the plates were spun at 2500 RPM for 1 minute on a Beckman GS-6R centrifuge, and the medium was then removed. 50 μl staining solution (1:100 dilution of anti-CD69-APC antibody (Becton Dickenson) in PBS+2% FBS) was then added to each well, followed by incubation of the plates 4 degrees for 20 minutes in the dark. 150 μl of wash buffer (PBS+2% FBS) was then added to each well, and the plates were spun at 3000 RPM for 1 minute. The supernatant was again removed, and the pellet was resuspended by vortexing gently. 75 μl of PBS+2% FBS +Cytofix (1:4 dilution) was then added, the plates gently vortexed and wrap in aluminum foil. Cells from the plates were read using a flow cytometer coupled to an automated liquid handling system.
Varied concentrations of compound were compared to solvent only to determine the inhibition of T-cell activation IC50 of each compound.
The IC50 is the concentration that inhibits the measured activity by half. Read a high IC50 as weaker potency. The compound `O=C(c1cc2cc(Nc3ncc(F)c(Nc4ccc5c(c4)OCCO5)n3)ccc2o1)N1CCNCC1` [Compound R926499] registered an IC50 of 0.56 µM.

Regarding `O=C(COc1cccc(Nc2ncc(F)c(Nc3ccc4c(c3)OCCO4)n2)c1)NCCOC(=O)CCCCC1SCC2NC(=O)NC21` (stereo not drawn) [Compound R926811], 1.28 µM corresponded to half-maximal inhibition (IC50).

In the case of `CC(C)(C)OC(=O)COc1ccc(Nc2ncc(F)c(Nc3ccc(OCC(=O)OC(C)(C)C)cc3)n2)cc1` [Compound R926574], the IC50 was greater than 10 µM.

For the compound `CNC(=O)COc1cccc(Nc2ncc(F)c(Nc3cccc(-c4nn[nH]n4)c3)n2)c1` [Compound R926855], the half-inhibitory concentration (IC50) is greater than 10 µM.

In the case of `CCOC(=O)C(C)(C)c1ccc(Nc2ncc(F)c(Nc3ccc(OC(C)C)cc3)n2)cc1` [Compound R935150], 20.4 µM corresponded to half-maximal inhibition (IC50). This counts as double-digit micromolar.

Compound `CCOC(=O)COc1ccc(Nc2nc(Nc3ccc(OCC(=O)OCC)cc3)c([N+](=O)[O-])c(C(=O)OCC)n2)cc1` [Compound R926566] yielded a concentration for half-maximal inhibition (IC50) greater than 10 µM.

`CCOC(=O)C(C)Oc1ccc(Nc2ncc(C)c(Nc3ccc(OC(C)C(=O)OCC)cc3)n2)cc1` (racemic) [Compound R926259]: the concentration for half-maximal inhibition (IC50) turned out to be 13 µM.

As to `CCOC(=O)COc1ccc(Nc2nc(Nc3ccc(OCC(=O)OCC)cc3)c(NC(=O)NC3CCCC3)c(C(=O)OCC)n2)cc1` [Compound R926588], the IC50 is greater than 10 µM.

`CCOC(=O)CCn1ncc2cc(Nc3ncc(F)c(Nc4ccc5c(c4)OCCO5)n3)ccc21` [Compound R935301] displayed a concentration for half-maximal inhibition (IC50) of 2.32 µM. That is a single-digit micromolar value.

`CS(=O)(=O)Nc1cccc(Nc2ncc(F)c(Nc3cccc(NS(C)(=O)=O)c3)n2)c1` [Compound R950100] gave a half-inhibitory concentration (IC50) of 5.67 µM.

`COc1c(C)cc(Nc2nc(Nc3cccc(OCC(=O)N4CCNCC4)c3)ncc2F)cc1C` [Compound R945156]: the IC50 was found to be 2.29 µM.

For the compound `Fc1cnc(Nc2ccc3c(c2)OCCCO3)nc1Nc1ccc2c(c1)OCCCO2` [Compound R935162], the IC50 came out at 3.38 µM.

In turn, `Nc1cccc(Nc2ncc(F)c(Nc3cccc(NCCOCc4ccccc4)c3)n2)c1` [Compound R950175] had an IC50 greater than 10 µM.

Turning to `Cc1ccc(-c2ccccc2)cc1Nc1ncc(C)c(Nc2cc(-c3ccccc3)ccc2C)n1` [Compound R935001], the IC50 is greater than 10 µM.

`O=C(c1cc2cc(Nc3ncc(F)c(Nc4ccc5c(c4)OCCO5)n3)ccc2o1)N1CCCNCC1` [Compound R926768]: 0.973 µM corresponded to half-maximal inhibition (IC50).

On to `Cn1cc2cc(Nc3ncc(F)c(Nc4ccc5c(c4)OCCO5)n3)ccc2n1` [Compound R935300], for which the IC50 was found to be 3.38 µM.

Take `CC1(C)CN(c2ccccn2)c2cc(Nc3nc(Cl)ncc3F)ccc2O1` [Compound R940336]: the IC50 is greater than 10 µM.

The compound `N#CCOc1ccc(Nc2nc(Nc3ccc4c(c3)OCCO4)ncc2F)cc1` [Compound R945172] registered an IC50 of 3.13 µM.

Compound `Cn1nnnc1COc1ccc(Nc2ncc(F)c(Nc3ccc(OCc4nnnn4C)cc3)n2)cc1` [Compound R945048] yielded an IC50 of 2.23 µM.

Compound `CNC(=O)COc1cccc(Nc2ncc(F)c(Nc3ccc4c(c3)N(c3ccccn3)CC(C)(C)O4)n2)c1` [Compound R940337] registered a concentration for half-maximal inhibition (IC50) of 1.82 µM.

In turn, `O=C(c1cccc(Nc2ncc(F)c(Nc3ccc4cc[nH]c4c3)n2)c1)N1CCOCC1` [Compound R926934] returned a half-maximal inhibitory concentration (IC50) of 6.01 µM.

Compound `COC(=O)Cn1ncc2ccc(Nc3nc(Nc4ccc5c(c4)OCCO5)ncc3F)cc21` [Compound R935219] displayed an IC50 of 5.57 µM.

The compound `COC(=O)COc1ccc(Nc2ncc(F)c(Nc3cccc(C#N)c3)n2)cc1` [Compound R945110] registered a half-inhibitory concentration (IC50) greater than 10 µM.

For `CC1(C)COC(COc2ccc(Nc3ncc(F)c(Nc4cccc(O)c4)n3)cc2)=N1` [Compound R926702], the half-maximal inhibitory concentration (IC50) was 18.6 µM. In other words, the double-digit micromolar range.

Compound `OCC(O)COc1ccc(Nc2ncc(F)c(Nc3ccc4c(c3)OCCO4)n2)cc1` (stereo not drawn) [Compound R935179] displayed an IC50 of 3 µM.

Regarding `CNC(=O)COc1cccc(Nc2ncc(F)c(Nc3cccc(C(C)=O)c3)n2)c1` [Compound R950371], the IC50 came to 1.1 µM.

Compound `ON=C(c1ccccc1)c1cccc(Nc2ncc(F)c(Nc3cccc(C(=NO)c4ccccc4)c3)n2)c1` [Compound R950380] registered an IC50 of 8.69 µM.

`CCOC(=O)c1cnc(Nc2ccc3cn[nH]c3c2)nc1Nc1ccc2cn[nH]c2c1` [Compound R926320]: the half-inhibitory concentration (IC50) was greater than 10 µM.

In turn, `CNC(=O)COc1cccc(Nc2ncc(F)c(Nc3ccc4c(c3)C=CCO4)n2)c1` [Compound R950385] showed a concentration for half-maximal inhibition (IC50) of 2.58 µM.

For `CNC(=O)COc1ccc(Nc2ncc(F)c(Nc3ccc4c(c3)OCCCO4)n2)cc1` [Compound R935184], the concentration for half-maximal inhibition (IC50) came out at 4.08 µM.

Compound `Fc1cnc(Nc2ccc(OCc3nn[nH]n3)cc2)nc1Nc1ccc(OCc2nn[nH]n2)cc1` [Compound R945033] yielded a concentration for half-maximal inhibition (IC50) greater than 10 µM.

`Oc1cccc(Nc2nc(Nc3ccc4[nH]ncc4c3)ncc2F)c1` [Compound R935199]: half-maximal inhibition (IC50) required 2.51 µM.

In turn, `CNC(=O)Cn1ncc2cc(Nc3ncc(F)c(Nc4ccc(OC(C)C)cc4)n3)ccc21` [Compound R935239] came in with a 50% inhibitory concentration (IC50) of 1.73 µM.

`Oc1cccc(Nc2nc(NC3CCN(Cc4ccccc4)CC3)ncc2F)c1` [Compound R940264] gave a half-inhibitory concentration (IC50) greater than 10 µM.

Regarding `CN1CCN(C(=O)CNc2cccc(Nc3ncc(F)c(Nc4cccc(NCCO)c4)n3)c2)CC1` [Compound R950240], the IC50 came out at 8.93 µM.

The compound `CCOC(=O)COc1cccc(Nc2ncc(F)c(Nc3ccc(O)c(C(=O)OC)c3)n2)c1` [Compound R950293] had a half-inhibitory concentration (IC50) greater than 10 µM.

The compound `COC(=O)COc1ccc(Nc2ncc(C)c(Nc3ccc(OCC(=O)OC)cc3)n2)cc1` [Compound R926258] displayed a half-maximal inhibitory concentration (IC50) greater than 10 µM.

The compound `CNC(=O)COc1cccc(Nc2ncc(F)c(Nc3cccc(B(O)O)c3)n2)c1` [Compound R926754] gave a 50% inhibitory concentration (IC50) of 13.2 µM.

Compound `CNC(=O)COc1cccc(Nc2ncc(F)c(Nc3cc(C)ccc3Cl)n2)c1` [Compound R926840] had a half-maximal inhibitory concentration (IC50) of 12.2 µM.

Compound `NC(=O)CNc1cccc(Nc2ncc(F)c(Nc3ccc4c(c3)OCCO4)n2)c1` [Compound R950192] had a concentration for half-maximal inhibition (IC50) of 1.73 µM.

`CNC(=O)CNc1cccc(Nc2ncc(F)c(Nc3cccc(O)c3)n2)c1` [Compound R950218] gave a 50% inhibitory concentration (IC50) of 3.43 µM.

The same experiment, now with this note: Homo sapiens.
The compound `O=[N+]([O-])c1cc(Nc2ccnc(Nc3ccc(Cl)c([N+](=O)[O-])c3)n2)ccc1Cl` [Compound R950154] came in with a 50% inhibitory concentration (IC50) greater than 10 µM.

For the compound `O=[N+]([O-])c1cccc(Nc2ncc(F)c(Nc3cccc([N+](=O)[O-])c3)n2)c1` [Compound R950160], the IC50 was greater than 10 µM.

The experiment is the same for the next values; noted with them: Homo sapiens, Jurkat.
In the case of `CCOC(=O)c1cc2cc(Nc3ncc(F)c(Nc4cccc(O)c4)n3)ccc2[nH]1` [Compound R926615], inhibition was half-maximal at 1.87 µM (IC50).

For the compound `Oc1cccc(Nc2nc(NCc3csc4ccccc34)ncc2F)c1` [Compound R945164], the IC50 was greater than 10 µM.

As for `Fc1cnc(Nc2ccc(Cl)c(C(F)(F)F)c2)nc1Nc1ccc(Cl)c(C(F)(F)F)c1` [Compound R926039], the IC50 is greater than 10 µM.

Regarding `Oc1ccc(CCNc2ncc(F)c(NCCc3ccc(O)cc3)n2)cc1` [Compound R925791], the IC50 was greater than 10 µM.

Regarding `CCOc1ccc(Nc2ccnc(Nc3ccc(OCC)c(N)c3)n2)cc1N` [Compound R950142], it took 29.1 µM to reach half-maximal inhibition (IC50). In other words, the double-digit micromolar range.

As for `Cc1ccc(-c2ccccc2)cc1Nc1ccnc(Nc2cc(-c3ccccc3)ccc2C)n1` [Compound R925807], the concentration for half-maximal inhibition (IC50) was greater than 10 µM.

`OB(O)c1cccc(Nc2nc(Nc3cccc(O)c3)ncc2F)c1` [Compound R926755]: the midpoint of inhibition, the IC50, lay at 7.36 µM.

Compound `CCOc1ccc(Nc2cc(C(=O)OC)nc(Nc3ccc(OCC)cc3)n2)cc1` [Compound R926058] showed an IC50 greater than 10 µM.

`OCCOc1cccc(Nc2nc(Nc3ccc4c(c3)OCCO4)ncc2F)c1` [Compound R935176] had an IC50 of 1.98 µM.

Compound `COc1ccc(-c2ccccc2)cc1Nc1ncc(C)c(Nc2cc(-c3ccccc3)ccc2OC)n1` [Compound R935000] registered an IC50 greater than 10 µM.

`O=C(O)c1cccc(Nc2ncc(F)c(Nc3cccc(C(=O)O)c3)n2)c1` [Compound R945036] yielded an IC50 greater than 10 µM.

`Fc1cnc(Nc2ccc3c(c2)OCCO3)nc1Nc1ccc(N2CCN(Cc3ccccc3)CC2)cc1` [Compound R945155] had an IC50 of 7.07 µM.

`CC(C)(C)OC(=O)Nc1cccc(Nc2ncc(F)c(Nc3cccc(NC(=O)OC(C)(C)C)c3)n2)c1` [Compound R950108]: the IC50 is greater than 10 µM.

Take `C=CCNc1ncc(F)c(Nc2ccc3c(c2)OCCO3)n1` [Compound R925823]: the half-inhibitory concentration (IC50) came out at 9.33 µM.

With `COc1ccc(Nc2ncc(F)c(Nc3ccc(OC)cc3)n2)cc1` [Compound R926017], the concentration for half-maximal inhibition (IC50) was determined as 20.8 µM. This IC50 is about 2.2-fold higher than that of the compound before.

In turn, `CCOC(=O)C1CCN(C(=O)c2cccc(Nc3nc(Nc4cccc(O)c4)ncc3F)c2)CC1` [Compound R926940] showed an IC50 greater than 10 µM.

As for `Oc1cccc(Nc2ncc(F)c(NCCSCc3c(F)cccc3Cl)n2)c1` [Compound R926724], the IC50 was greater than 10 µM.

In turn, `O=C(O)c1cc2cc(Nc3ncc(F)c(Nc4ccc5c(c4)OCCO5)n3)ccc2o1` [Compound R926698] displayed an IC50 greater than 10 µM.

Turning to `CC(C)Oc1ccc(Nc2nc(Nc3ccc(OCC(O)CO)cc3)ncc2F)cc1` (stereo not drawn) [Compound R935175], the half-maximal inhibitory concentration (IC50) was 1.74 µM. That is a single-digit micromolar value.

For `CN(C)CCOc1cccc(Nc2ncc(F)c(Nc3ccc4c(c3)OCCO4)n2)c1` [Compound R926771], half-maximal inhibition (IC50) was put at 3.47 µM.
